Experimental data published in patent US20210402002A1, “CONJUGATE” (priority 2018, published 2021).

Key:
SKOV-3 cells = assay: ADCC assay (LDH cytotoxicity) with SKOV-3 cells pre-incubated with glycosylation inhibitors; format: cell-based
Protocol: (§1) SKBR-3 and SKOV-3 cells were cultured on 96-well plates in recommended conditions and incubated with or without glycosylation inhibitors or ADCs for four days as described above. […] After 3.5 h at +37° C., cytotoxicity was assessed with commercial lactate dehydrogenase assay kit (Cytotoxicity detection kit (LDH), Thermo Fischer Scientific) and the cytotoxicities were calculated as proportion of killed cells (%, average of three parallel wells).

HSC-2 cancer cells = assay: FACS staining of HSC-2 cells with lectins, Galectin-1 and Siglec-7 after incubation with glycosylation inhibitors; format: cell-based; settings: 2 days, compared to untreated cells; for Galectin-1 ligand glycosylation, lectin and Galectin-1 staining: 100 μM; for sialylation/Siglec-7 ligand glycosylation, SNA-I and Siglec-7 staining: 200 μM
Protocol: In another experiment, HSC-2 cancer cells were cultured for two days, after which glycosylation inhibitors were added to the cell culture medium: 200 μM β-3-Fax-Neu5Ac and 100 μM β-4-F-GlcNAc. The cells were then cultured for 2 days with inhibitors. In parallel, untreated cells were cultured in normal cell culture medium. For flow cytometry analysis cells were detached with trypsin, washed, and stained with FITC-conjugated lectins, AlexaFluor488-conjugated Galectin-1 and recombinant human Siglec-7 (R&D Systems) at +4° C. for 30-45 minutes (the Siglec-samples were further stained with AlexaFluor488-conjugated anti-human IgG antibody at +4° C. for 30-45 minutes). FACS was performed as above.

SKBR-3 cells [1] = assay: ADCC assay (LDH cytotoxicity) with SKBR-3 cells pre-incubated with glycosylation inhibitors; format: cell-based
Protocol: as §1

[2] = test system: SKOV-3 ovarian carcinoma cells; assay: FACS staining of SKOV-3 cells with labeled lectins and Galectins after incubation with glycosylation inhibitors; format: cell-based; settings: compared to untreated cells; for Galectin ligand expression, LEA-FITC, Galectin-1 and Galectin-3 staining: 50 μM, 4 days; for cell surface sialylation, SNA-I-FITC lectin staining: 100 μM, 3 days
Protocol: SKOV-3 ovarian carcinoma cells (ATCC, Manassas, Va., USA) were cultured according to ATCC's instructions and incubated in the presence of either 50 μM 2-acetamido-2,4-dideoxy-4-fluoro-1,3,6-tri-O-acetyl-D-glucose for 4 days (β-4-F-GlcNAc; Sussex Research, Ottawa, Canada), 100 μM 5-acetamido-3,5-dideoxy-3-fluoro-2,4,7,8,9-penta-O-acetyl-D-erythro-L-manno-2-nonulosonic acid methyl ester (β-3-Fax-Neu5Ac; Tocris Bioscience, Abingdon, United Kingdom) for 3 days, or DMSO carrier control in parallel. After the incubation, cells were stained with fluorescein-labeled lectins SNA-I-FITC for α2,6-sialylation, LEA-FITC for poly-N-acetyllactos-amines (both from EY Labs, San Mateo, Calif., USA), Alexa Fluor 488-conjugated human recombinant Galectin-1, and Alexa Fluor 488-conjugated human recombinant Galectin-3 (both from Abcam, Cambridge, United Kingdom). Cells were washed and stored on ice in the dark until analysed by FACSAriaII flow cytometer.

SKBR-3 cells [3] = test system: SKBR-3 cells
SKBR-3 cells [4] = assay: N-glycan profiling by MALDI-TOF MS, high-mannose N-glycans (mannosidase I inhibition); format: cell-based; settings: 10 μM, four days, control cells 7.07
[5] = test system: NCI-N87 cancer cell line tumors; assay: In vivo efficacy trial, tumors on chicken egg chorioallantoic membrane (CAM); settings: day E18, trastuzumab and tunicamycin-ADC single dose 2.5 mg/kg, pembrolizumab […] five doses, PBS control 32.2
Protocol: (§2) The study was performed by Inovotion SAS (La Tronche, France) as follows: Fertilized chicken eggs were incubated at 37.5° C. with 50% relative humidity for 9 days (E9), when the chorioallantoic membrane (CAM) was dropped down by drilling a small hole through the eggshell into the air sac, and a 1 cm^2 window was cut in the eggshell above the CAM. The NCI-N87 cell line was cultivated in RPMI-1640 medium supplemented with 10% FBS and 1% penicillin/streptomycin. On day E9, cells were detached by trypsin, washed with complete medium and suspended in graft medium. An inoculum of 2 million cells was added onto the CAM of each egg. […] On day 18 (E18) the upper portion of the CAM was removed, washed in PBS and then directly transferred in PFA (fixation for 48 h). The tumors were then carefully cut away from normal CAM tissue and weighed. Eggs were checked at each treatment time, or at least every two days, for viability during the study. At the end of the study, the number of dead embryos was counted and combined with the observation of eventual visible macroscopic abnormalities (observation done during the sample collection) to evaluate the toxicity.

egg embryos = assay: Embryo toxicity in the CAM in vivo trial (% alive egg embryos); design: species or system chicken; settings: alive egg embryos at end of study; same dosing; PBS control 83
Protocol: as §2

HER2 = assay: Inhibition of HER2 glycoprotein N-glycosylation in SKBR-3 cells (SDS-PAGE, anti-HER2 immunoblot); format: cell-based, human
Source text: After six days' culture, the cells were lysed and samples from each treatment were subjected to SDS-PAGE and immunoblotting with anti-HER2 antibody (anti-human ErbB2/Her2 goat polyclonal antibody AF1129, R&D Systems) with standard procedures.

[6] = SKOV-3, 50 μM inhibitor and trastuzumab only, no effector cells
[7] = SKOV-3, 50 μM inhibitor, trastuzumab and effector cells applied
[8] = second assay, SKBR-3, 50 μM inhibitor and trastuzumab only, no effector cells
[9] = second assay, SKBR-3, 50 μM inhibitor, trastuzumab and effector cells applied

**Q.** With `CC(=O)N[C@H]1C(OC(C)=O)O[C@H](COC(C)=O)[C@@H](F)[C@@H]1OC(C)=O` (stereo partly drawn) [P-4F-GlcNAc, 2-acetamido-2,4-dideoxy-4-fluoro-1,3,6-tri-O-acetyl-D-glucose] as the molecule, how does the “cytotoxicity (proportion of killed cells)” value (SKOV-3 cells; [6]) read?
**A.** The value was “no cytotoxicity was observed”.

**Q.** And the “cytotoxicity (proportion of killed cells)” value (SKOV-3 cells; [7])?
**A.** Its value is “about 5%”.

**Q.** And the “Galectin-1 ligand glycosylation, lectin and Galectin-1 staining” value (HSC-2 cancer cells)?
**A.** The value was “effective inhibition”.

**Q.** And the “Galectin-1 ligand glycosylation, lectin and Galectin-1 staining” value (HSC-2 cancer cells; listed as β-4-F-GlcNAc)?
**A.** Its value is “clearly decreased”.

**Q.** What about the “cytotoxicity (proportion of killed cells)” value (SKBR-3 cells [1]; [8]) of the same molecule?
**A.** The value was 1-2%.

**Q.** And the “cytotoxicity (proportion of killed cells)” value (SKBR-3 cells [1]; [9])?
**A.** The value was “about 16%”.

**Q.** And the “Galectin ligand expression, LEA-FITC, Galectin-1 and Galectin-3 staining” value [2]?
**A.** The value was “effective inhibition”.

**Q.** And the “Galectin ligand expression, LEA-FITC, Galectin-1 and Galectin-3 staining” value ([2]; listed as β-4-F-GlcNAc)?
**A.** Its value is “clearly decreased”.

**Q.** Which “cytotoxicity to the cells in the viability assay” value (SKBR-3 cells [3]; five or eight days, up to 1 μM) does the source give for “omalizumab-MC-VC-PAB-DMAE-tunicamycin DAR=8 ADC: DAR=8 conjugate of MC-VC-PAB-DMAE-tunicamycin V prepared from omalizumab (negative control antibody)” here?
**A.** Its value is “no apparent toxicity”.

**Q.** With `O=C1N[C@@H]2[C@@H](O)[C@@H](O)[C@H](O)[C@@H](CO)N2C1=O` [kifunensine] as the molecule, how does the “cytotoxicity (proportion of killed cells)” value (SKOV-3 cells; [6]) read?
**A.** The value was “no cytotoxicity was observed”.

**Q.** And the “cytotoxicity (proportion of killed cells)” value (SKOV-3 cells; [7])?
**A.** The value was “about 2%”.

**Q.** And the “average number of mannose residues (Man) in the Man5-9GlcNAc2 glycan signal series” value (SKBR-3 cells [4])?
**A.** The value was 8.56.

**Q.** What about the “cytotoxicity (proportion of killed cells)” value (SKBR-3 cells [1]; first assay, SKBR-3, 10 μM inhibitor and trastuzumab only, no effector cells) of the same molecule?
**A.** Its value is “no cytotoxicity was detected”.

**Q.** What about the “cytotoxicity (proportion of killed cells)” value (SKBR-3 cells [1]; first assay, SKBR-3, 10 μM inhibitor, trastuzumab and effector cells applied) of the same molecule?
**A.** Its value is 18.5%.

**Q.** What about the “cytotoxicity (proportion of killed cells)” value (SKBR-3 cells [1]; [8]) of the same molecule?
**A.** Its value is 2-3%.

**Q.** What about the “cytotoxicity (proportion of killed cells)” value (SKBR-3 cells [1]; [9]) of the same molecule?
**A.** The value was “about 19%”.

**Q.** “pembrolizumab: pembrolizumab (Keytruda, Merck)” was tested. Which “Mean tumor size” value [5] did it give?
**A.** The value was 34.9 mg.

**Q.** And the “% alive” value (egg embryos)?
**A.** The value was 58%.

**Q.** How did the EC50 (HER2; six days' incubation, immunoblot, read-out: EC50 (concentration with 50% efficacy) of decrease of relative MW of HER2, defective N-glycosylation) turn out when tunicamycin was run?
**A.** The EC50 was 70 nM.

**Q.** What about the “decrease of relative MW of HER2 upon inhibition of N-glycosylation” value (HER2; six days, SDS-PAGE) of the same molecule?
**A.** Its value is “about 15 kDa”.

**Q.** What about the “cytotoxicity (proportion of killed cells)” value (SKOV-3 cells; SKOV-3, 0.5 μM inhibitor and trastuzumab only, no effector cells) of the same molecule?
**A.** Its value is “about 2%”.

**Q.** And the “cytotoxicity (proportion of killed cells)” value (SKOV-3 cells; SKOV-3, 0.5 μM inhibitor, trastuzumab and effector cells applied)?
**A.** The value was “about 5%”.

**Q.** What about the IC50 (SKBR-3 cells [3]; read-out: IC50 (cellular viability), six days) of the same molecule?
**A.** Its IC50 is 300 nM.

**Q.** And the “cytotoxicity (proportion of killed cells)” value (SKBR-3 cells [1]; first assay, SKBR-3, 1 μM inhibitor and trastuzumab only, no effector cells)?
**A.** The value was “no cytotoxicity was detected”.

**Q.** And the “cytotoxicity (proportion of killed cells)” value (SKBR-3 cells [1]; first assay, SKBR-3, 1 μM inhibitor, trastuzumab and effector cells applied)?
**A.** Its value is 40.4%.

**Q.** What about the “cytotoxicity (proportion of killed cells)” value (SKBR-3 cells [1]; second assay, SKBR-3, 0.5 μM inhibitor and trastuzumab only, no effector cells) of the same molecule?
**A.** The value was “about 4%”.

**Q.** And the “cytotoxicity (proportion of killed cells)” value (SKBR-3 cells [1]; second assay, SKBR-3, 0.5 μM inhibitor, trastuzumab and effector cells applied)?
**A.** The value was “about 46%”.

**Q.** With `COC(=O)C1(OC(C)=O)O[C@@H]([C@H](OC(C)=O)[C@@H](COC(C)=O)OC(C)=O)[C@H](NC(C)=O)[C@@H](OC(C)=O)[C@H]1F` (stereo partly drawn) [P-3Fax-Neu5Ac, 5-acetamido-3,5-dideoxy-3-fluoro-2,4,7,8,9-penta-O-acetyl-D-erythro-L-manno-2-nonulosonic acid methyl ester] as the molecule, how does the “sialylation/Siglec-7 ligand glycosylation, SNA-I and Siglec-7 staining” value (HSC-2 cancer cells) read?
**A.** Its value is “effective inhibition”.

**Q.** And the “sialylation/Siglec-7 ligand glycosylation, SNA-I and Siglec-7 staining” value (HSC-2 cancer cells; listed as β-3-Fax-Neu5Ac)?
**A.** Its value is “clearly decreased”.

**Q.** What about the “absorbance reading in the cytotoxicity assay” value (SKBR-3 cells [1]; third assay, SKBR-3, 50 μM inhibitor, trastuzumab and effector cells applied) of the same molecule?
**A.** The value was “about 0.7”.

**Q.** And the “cell surface sialylation, SNA-I-FITC lectin staining” value [2]?
**A.** The value was “effective inhibition”.

**Q.** And the “cell surface sialylation, SNA-I-FITC lectin staining” value ([2]; listed as β-3-Fax-Neu5Ac)?
**A.** Its value is “clearly decreased”.
